Experiments:
[1] = tested on: normal rats; assay: Cardiorenal actions after intravenous bolus in anesthetized normal rats; format: in vivo, Wistar rats; settings: for MAP mean arterial pressure / HR heart rate / RAP right atrial pressure / UKV urine potassium excretion / UNaV urine sodium excretion / UV urine volume / UcGMPV urine cGMP volume / PcGMP plasma cGMP: mean ± SEM; for MAP mean arterial pressure: n = 4
Description: (§1) The results obtained are expressed as the means ±SEM. In organ chamber studies, n equals the number of dogs from which rings were taken. Rings with and without endothelium were studied in parallel, and Student's t-test for unpaired observations was used to determine statistical significance among the responses of rings with and without endothelium and between responses of arteries and veins. In rat studies, the data were analyzed using ANOVA for repeated measures followed by Fisher's least significant difference test when appropriate within the group. Data between groups were analyzed by Student's unpaired t-test. Statistical significance was determined at p<0.05.
Experiments were conducted in accordance with the Animal Welfare Act. Wistar rats and spontaneously hypertensive rats (SHR) (400 g; Harlan Sprague-Dawley, Indianapolis, Ind.) were anesthetized with Inactin (100 mg/kg; intraperitoneal; BYK Gulden, Konstanz, Germany). The body temperature was maintained between 36° and 38° C. by a heating pad. Tracheostomy was performed; however, the animals were not artificially ventilated. Polyethylene catheters (PE-50; Becton Dickinson Co., Parsippany, N.J.) were placed in the left Jugular vein for infusions of saline and drugs, in the right jugular vein to right atrium to monitor right atrial pressure, and in the carotid artery for the collection of blood samples and to monitor mean arterial pressure. A PE-90 catheter was placed in the bladder for urine collection.
Experiments were conducted in three groups in normal rats: ANP group (n=4), CNP group (n=4), and VNP group (n=4). VNP also was studied in SHR rats (n=4). Intravenous infusions of saline solution (0.9% NaCl) were performed (1 ml/100 gm body weight/hr) through the left jugular vein catheter. After completion of surgery, rats were allowed to stabilize for 30 minutes. In each group, a 15-min baseline period followed. After the baseline period, saline solution (0.9% NaCl) was administered in a bolus fashion (0.1 ml) and was followed by a 15-min period. After the saline period, the peptide (ANP, CNP or VNP) was administered in a bolus fashion (0.1 ml) at 5 μg/kg which was followed by a 15-min period. This was followed by a second bolus (0.1 ml) at 50 μg/kg and a 15-min period. After a 30-min washout, a 15-min recovery period followed. During each experimental period, mean arterial pressure (MAP), heart rate (HR), and right atrial pressure (RAP) were measured. At the midpoint of baseline, second bolus fashion (50 μg/kg) and recovery periods, blood was sampled for plasma cGMP. At the end of each period, urine was measured for volume (UV), and samples were stored for electrolytes and cGMP analysis.
Blood for plasma cGMP analysis was collected into EDTA tubes, immediately placed on ice, and centrifuged at […] at 4° C. Plasma was separated and stored at -20° C. until assay. Urine for cGMP determination was heated to >90° C. before storage. Plasma and urine cGMP were determined by a specific RIA as previously described by A. L. Steiner et al., J. Hypertension, 5 (Suppl. 5) 551-553 (1987).

[2] = tested on: isolated normal canine blood vessels; assay: Organ chamber isometric force: relaxation of phenylephrine-contracted vessel rings; set-up: species or system dog; settings: for relaxation: maximal dose (3×10^-6 M); for maximal response, percent change in tension from a contraction to phenylephrine: peptide 3 × 10^-6 M, mean ± SEM
Description: as §1
Rings cut from femoral, saphenous, renal and pulmonary arteries and veins obtained from random source mongrel dogs (anesthetized with 30 mg/kg pentobarbital sodium intravenously) were suspended for the measurement of isometric force in organ chambers filled with aerated (95% O2 and 5% CO2) modified Krebs-Ringer bicarbonate solution (composition in mM: 118.3 NaCl, 4.7 KCl, 2.5 CaCl2, 1.2 MgSO4, 1.2 KH2 PO4, 25.0 NaHCO3, 0.026 calcium sodium EDTA, and 11.1 dextrose; control solution) at 37° C. In one-half rings, the endothelium was removed by gently rubbing the intimal surface with a cotton swab wetted with control solution. Each ring was stretched to the optimal point on its length-tension curve as determined by the tension developed to norepinephrine (3×10^-7 M) at each level of stretch. The presence of endothelium was determined at the beginning of the experiment by a relaxation to acetylcholine (10^-6 M) during a contraction to norepinephrine at optimal length. The maximal tension of each ring was determined by norepinephrine (10^-4 M). To study responses to ANP, CNP and VNP, the rings were contracted with phenylephrine (10^-6 M). These contractions averaged 30-40% of the maximal contraction to norepinephrine. The peptides were added cumulatively once the contraction had stabilized.
The following commercially available drugs were used: acetylcholine chloride (Sigma Chemical, St. Louis, Mo.), human ANP and human CNP (Peninsula Laboratories, Belmont, Calif.), L-norepinephrine bitartrate (Sigma), phenylephrine bitartrate (Sigma). All drugs were dissolved in distilled water immediately prior to study, and the concentrations are reported as the final molar concentration (M) in the organ chamber.

[3] = normal rats, high dose (50 μg/kg) bolus

In the case of CC[C@H](C)[C@@H]1NC(=O)[C@H](CCCNC(=N)N)NC(=O)[C@H](CC(=O)O)NC(=O)[C@H](CC(C)C)NC(=O)[C@H](CCCCN)NC(=O)[C@H](CC(C)C)NC(=O)CNC(=O)[C@H](Cc2ccccc2)NC(=O)[C@@H](NC(=O)CNC(=O)[C@H](CCCCN)NC(=O)[C@H](CO)NC(=O)[C@H](CC(C)C)NC(=O)CN)CSSC[C@@H](C(=O)O)NC(=O)CNC(=O)[C@H](CC(C)C)NC(=O)CNC(=O)[C@H](CO)NC(=O)[C@H](CCSC)NC(=O)[C@H](CO)NC(=O)CNC1=O [CNP, C-type natriuretic peptide], the “natriuretic action (in words)” value ([1]; in vivo, rat) is reported as “modest but significant natriuretic actions”, the “change in MAP and RAP (in words)” value [1, 3] is reported as “significant decrease” and the “change in urine flow, sodium excretion, plasma cGMP and urinary cGMP volume (in words)” value [1, 3] is reported as “increased”. For the same molecule, the “MAP mean arterial pressure” value ([1]; normal rats, iv bolus 5 μg/kg, 15-min period) was 100 ± 12 mmHg, the HR heart rate ([1]; normal rats, iv bolus 5 μg/kg) was 363 ± 19 beats/min and the “RAP right atrial pressure” value ([1]; normal rats, iv bolus 5 μg/kg) was 0 ± 1.5 mmHg. For the same molecule, the “UKV urine potassium excretion” value ([1]; normal rats, iv bolus 5 μg/kg) was 5.1 ± 1.6 µmol/min, the “UNaV urine sodium excretion” value ([1]; normal rats, iv bolus 5 μg/kg) was 4.1 ± 1.4 µmol/min and the UV urine volume ([1]; normal rats, iv bolus 5 μg/kg) was 27.6 ± 2.0 µL/min. The “UcGMPV urine cGMP volume” value ([1]; normal rats, iv bolus 5 μg/kg) was 97 ± 32 pmol/min, the HR heart rate ([1]; normal rats, iv bolus 50 μg/kg) was 365 ± 19 beats/min and the “PcGMP plasma cGMP” value ([1]; normal rats, iv bolus 50 μg/kg) was 19.4 ± 2.7 pmol/mL. For the same molecule, the “RAP right atrial pressure” value ([1]; normal rats, iv bolus 50 μg/kg) was -2.3 ± 0.6 mmHg, the “UKV urine potassium excretion” value ([1]; normal rats, iv bolus 50 μg/kg) was 7.6 ± 2.5 µmol/min and the “UNaV urine sodium excretion” value ([1]; normal rats, iv bolus 50 μg/kg) was 12.1 ± 3.2 µmol/min. For the same molecule, the UV urine volume ([1]; normal rats, iv bolus 50 μg/kg) was 66.4 ± 7.4 µL/min, the “UcGMPV urine cGMP volume” value ([1]; normal rats, iv bolus 50 μg/kg) was 323 ± 81 pmol/min and the “MAP mean arterial pressure” value ([1]; normal rats, recovery period after 30-min washout) was 104 ± 11 mmHg. For the same molecule, the HR heart rate ([1]; normal rats, recovery period) was 363 ± 16 beats/min, the “PcGMP plasma cGMP” value ([1]; normal rats, recovery period) was 3.6 ± 0.3 pmol/mL and the “RAP right atrial pressure” value ([1]; normal rats, recovery period) was -0.1 ± 0.9 mmHg. For the same molecule, the “UKV urine potassium excretion” value ([1]; normal rats, recovery period) was 2.4 ± 1.1 µmol/min, the “UNaV urine sodium excretion” value ([1]; normal rats, recovery period) was 2.9 ± 0.3 µmol/min and the UV urine volume ([1]; normal rats, recovery period) was 21.2 ± 6.3 µL/min. For the same molecule, the “UcGMPV urine cGMP volume” value ([1]; normal rats, recovery period) was 70 ± 39 pmol/min, the “MAP mean arterial pressure” value ([1]; normal rats, second iv bolus 50 μg/kg, 15-min period) was 87 ± 9 mmHg and the relaxation ([2]; femoral and saphenous arteries) was “no effects”. For the same molecule, the “maximal response, percent change in tension from a contraction to phenylephrine” value (“maximal response, percent change” for short) ([2]; femoral artery, with endothelium, phenylephrine 10^-6 M) was 4 ± 3%, the “maximal response, percent change” value ([2]; femoral artery, without endothelium) was 10 ± 6% and the “maximal response, percent change” value ([2]; femoral vein, with endothelium) was 37 ± 8%. The “maximal response, percent change” value ([2]; femoral vein, without endothelium) was 73 ± 8%, the relaxation ([2]; femoral veins) was 90% and the “maximal response, percent change” value ([2]; pulmonary artery, with endothelium) was 12 ± 3%. The “maximal response, percent change” value ([2]; pulmonary artery, without endothelium) was 33 ± 5%, the “maximal response, percent change” value ([2]; pulmonary vein, with endothelium) was 31 ± 6% and the “maximal response, percent change” value ([2]; pulmonary vein, without endothelium) was 66 ± 4%. For the same molecule, the “maximal response, percent change” value ([2]; renal artery, with endothelium) was 8 ± 2%, the “maximal response, percent change” value ([2]; renal artery, without endothelium) was 8 ± 2% and the “maximal response, percent change” value ([2]; renal vein, with endothelium) was 43 ± 4%. The “maximal response, percent change” value ([2]; renal vein, without endothelium) was 71 ± 5%, the “maximal response, percent change” value ([2]; saphenous artery, with endothelium) was 11 ± 7% and the “maximal response, percent change” value ([2]; saphenous artery, without endothelium) was 14 ± 8%. The “maximal response, percent change” value ([2]; saphenous vein, with endothelium) was 16 ± 1%, the “maximal response, percent change” value ([2]; saphenous vein, without endothelium) was 43 ± 10% and the relaxation ([2]; saphenous veins) was 40%. The “relaxation, % of the contraction to phenylephrine” value ([2]; systemic arteries (femoral, saphenous and renal)) was “less than 30%”.

— patent US5583108A, “Vasonatrin peptide and analogs thereof” (Mayo Foundation for Medical Education and Research, priority 1994, dated 1996)
